We go through ten molecules from US9994581B2, “Bromodomain inhibitors” (AbbVie Inc., priority 2013, dated 2018).

In test [1] the test system is LPS induced IL-6 (Interleukin-6) production. In words: LPS (lipopolysaccharide) induced IL-6 production mouse assay. Conditions: oral administration one hour before LPS 2.5 mg/kg i.p., serum IL-6 2 hours after LPS, p < 0.05.
Procedure: Compounds of the Examples listed in Table 2 were assayed for their ability to inhibit LPS (lipopolysaccharide) induced IL-6 (Interleukin-6) production in mice. Fox Chase SCID® female mice (Charles Rivers Labs, 8 per group) or CD1 female mice received an intraperitoneal challenge of lipopolysaccharide (2.5 mg/kg, L2630 E. coli 0111:B4) one hour after oral administration of compounds. Mice were euthanized 2 hours after lipopolysaccharide injection, blood was removed by cardiac puncture, and then the serum harvested from the blood samples was frozen at −80° C. On the day of the assay the serum samples were brought to room temperature and then diluted 1:20 in phosphate-buffered saline containing 2% bovine serum albumin. Interleukin-6 measurements were performed using a cytokine assay from Meso Scale Discovery (Gaithersburg, Md.) for mouse serum analysis according to the manufacturer's protocol and read on a SECTOR Imager 6000 (Meso Scale Discovery, Gaithersburg, Md.) instrument. Statistical analysis was performed using Prism software (version 5.0) incorporating Dunnett's one way ANOVA. The IL-6 mean and standard deviation of the group of vehicle treated animals were compared with the IL-6 mean and standard deviation of the group treated with drug.
The test system of test [2] is breast cancer cell line MX-1. Briefly: MX-1 cell line proliferation assay (3-day, Cell Titer Glo). The class given is cell-based. The conditions noted are these: 72 hours, read-out: Cellular proliferation: EC50. Summed up: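 MX-1 cells plated at 5000 cells/well and adhered overnight at 37°, then treated for 3 days with 10-point 3-fold dilutions (final top 3 or 1 μM). Viability by Cell Titer Glo luminescence normalized to DMSO-treated cells; EC50 from sigmoidal curve fit.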
(In ATP-based viability assays light output follows the ATP content of the culture.)

The target in a further test is BRD4 (BDI-BDII_K57-K550) (Homo sapiens, UniProt O60885). Briefly: TR-FRET bromodomain binding assay. The conditions noted are these: His-tagged tandem bromodomain, Alexa647-labeled probe; Ki calculated from IC50s, probe Kd and probe concentration.

The Ki is the dissociation constant of the complex between target and ligand, obtained from inhibition or displacement.

Read-outs that look alike come from different tables or passages of the source.

In the case of `CCS(=O)(=O)Nc1ccc2c(c1)-c1cn(C)c(=O)cc1OCCOCc1cc(Cl)ccc1O2` [Example B-5, N-(11-chloro-2-methyl-3-oxo-2,3,6,7-tetrahydro-9H-dibenzo[6,7:9,10][1,4,8]trioxacyclododecino[11,12-c]pyridin-17-yl)ethanesulfonamide], the “Inhibition of LPS induced IL-6 production, % inhibition” value (from here on “Inhibition … % inhibition”) in test [1] (CD1 mouse strain) worked out at 61%. Also, in test [2] (Homo sapiens, MX1, MX-1 cells), the EC50 worked out at 2.79 nM. The inhibition constant (Ki) at BRD4 (BDI-BDII_K57-K550) was 1.19 nM.
In the case of `CCS(=O)(=O)c1ccc2c(c1)-c1cn(C)c(=O)cc1OCCCc1cc(Cl)ccc1O2` [Example A-3, 10-chloro-16-(ethylsulfonyl)-2-methyl-7,8-dihydro-2H-dibenzo[4,5:7,8][1,6]dioxacycloundecino[3,2-c]pyridin-3(6H)-one], the “Inhibition … % inhibition” value in test [1] (SCID mouse strain) is 78%. Further, in test [2] (Homo sapiens, MX1, MX-1 cells), the EC50 came out at 31.1 nM. Further, the Ki at BRD4 (BDI-BDII_K57-K550) is 7.54 nM.
As to `Cn1cc2c(cc1=O)OCCCc1cc(Cl)ccc1Oc1ccc(NS(C)(=O)=O)cc1-2` [Example A-12, N-(10-chloro-2-methyl-3-oxo-3,6,7,8-tetrahydro-2H-dibenzo[4,5:7,8][1,6]dioxacycloundecino[3,2-c]pyridin-16-yl)methanesulfonamide], the “Inhibition … % inhibition” value in test [1] (CD1 mouse strain) is on record as 47%. The EC50 in test [2] (Homo sapiens, MX1, MX-1 cells) turned out to be 19.1 nM. Further, the inhibitory constant (Ki) on BRD4 (BDI-BDII_K57-K550) was 2.16 nM.
Turning to `CCN1CCOc2cc(=O)n(C)cc2-c2cc(NS(=O)(=O)CC)ccc2Oc2ccc(Cl)cc2C1` [Example B-1, N-(11-chloro-8-ethyl-2-methyl-3-oxo-2,3,6,7,8,9-hexahydrodibenzo[f,i]pyrido[3,4-k][1,8,4]dioxazacyclododecin-17-yl)ethanesulfonamide], in test [1] (CD1 mouse strain), the “Inhibition … % inhibition” value worked out at 43%. The EC50 in test [2] (Homo sapiens, MX1, MX-1 cells) came out at 8.77 nM. Also, the inhibitory constant (Ki) at BRD4 (BDI-BDII_K57-K550) is 15.1 nM.
Take `CCS(=O)(=O)Nc1cnc2c(c1)-c1cn(C)c(=O)cc1OCCCCc1cc(Cl)ccc1O2` [Example A-33, N-(11-chloro-2-methyl-3-oxo-2,3,6,7,8,9-hexahydrobenzo[11,12][1,6]dioxacyclododecino[2,3-b:4,5-c′]dipyridin-17-yl)ethanesulfonamide]: the “Inhibition … % inhibition” value in test [1] (CD1 mouse strain) is 74%. In addition, in test [2] (Homo sapiens, MX1, MX-1 cells), the EC50 worked out at 5.68 nM. Further, the Ki on BRD4 (BDI-BDII_K57-K550) was 1.45 nM.
For the molecule `CCS(=O)(=O)Nc1ccc2c(c1)-c1cn(C)c(=O)cc1OCCCc1cc(Cl)ccc1O2` [Example A-5, N-(10-chloro-2-methyl-3-oxo-3,6,7,8-tetrahydro-2H-dibenzo[4,5:7,8][1,6]dioxacycloundecino[3,2-c]pyridin-16-yl)ethanesulfonamide], in test [1] (SCID mouse strain), the “Inhibition … % inhibition” value is on record as 73%. For the same molecule, the EC50 in test [2] (Homo sapiens, MX1, MX-1 cells) was 12.8 nM. Further, the Ki on BRD4 (BDI-BDII_K57-K550) was 1.3 nM.
As to `CCS(=O)(=O)c1ccc2c(c1)-c1cn(C)c(=O)cc1OCCCCc1cc(F)cc(F)c1O2` [Example A-20, 17-(ethylsulfonyl)-11,13-difluoro-2-methyl-6,7,8,9-tetrahydrodibenzo[4,5:7,8][1,6]dioxacyclododecino[3,2-c]pyridin-3(2H)-one], the “Inhibition … % inhibition” value in test [1] (CD1 mouse strain) stood at 81%. Besides, the EC50 in test [2] (Homo sapiens, MX1, MX-1 cells) was determined as 8.69 nM. The inhibitory constant (Ki) on BRD4 (BDI-BDII_K57-K550) is 1.25 nM.
`CCS(=O)(=O)Nc1ccc2c(c1)-c1cn(C)c(=O)cc1OCCCc1cc(F)cc(F)c1O2` [Example A-6, N-(10,12-difluoro-2-methyl-3-oxo-3,6,7,8-tetrahydro-2H-dibenzo[4,5:7,8][1,6]dioxacycloundecino[3,2-c]pyridin-16-yl)ethanesulfonamide]: in test [1] (CD1 mouse strain), the “Inhibition … % inhibition” value is listed as 86%. Also, the EC50 in test [2] (Homo sapiens, MX1, MX-1 cells) turned out to be 9.6 nM. The inhibition constant (Ki) on BRD4 (BDI-BDII_K57-K550) is 1.51 nM.
With `CCS(=O)(=O)c1ccc2c(c1)-c1cn(C)c(=O)cc1OCCCCc1cc(Cl)ccc1O2` [Example A-13, 11-chloro-17-(ethylsulfonyl)-2-methyl-6,7,8,9-tetrahydrodibenzo[4,5:7,8][1,6]dioxacyclododecino[3,2-c]pyridin-3(2H)-one], in test [1] (CD1 mouse strain), the “Inhibition … % inhibition” value came out at 82%. Also, in test [2] (Homo sapiens, MX1, MX-1 cells), the EC50 was 13.6 nM. For the same molecule, the inhibition constant Ki at BRD4 (BDI-BDII_K57-K550) is 0.99 nM.
For “17-(ethylsulfonyl)-11-fluoro-2-methyl-6,7,8,9-tetrahydrodibenzo[4,5:7,8][1,6]dioxacyclododecino[3,2-c]pyridin-3(2H)-one [Example A-22]”, in test [1] (CD1 mouse strain), the “Inhibition … % inhibition” value came out at 83%. Moreover, the EC50 in test [2] (MX-1 cells) is 9 nM. Moreover, the Ki on BRD4 (BDI-BDII_K57-K550) is 1.51 nM.
